Experimental data taken from US12540143B2, “Methods and compositions for targeted protein degradation” (Ranok Therapeutics (Hangzhou) Co. Ltd., priority 2019, dated 2026).

Test system: MV4-11 cells
Assay: MV4-11 Cytotoxicity Assay
Type: cell-based, human
Conditions: Homo sapiens, MV4-11; 72 hr, CCK-8; read-out: MV4-11 cytotoxicity

| Compound | IC50 |
| --- | --- |
| Cc1sc2c(c1C)C(c1ccc(Cl)cc1)=N[C@@H](CC(=O)N1CCC(CCN3CCC(Cc4ccc(-n5c(O)nnc5-c5cc(C(C)C)c(O)cc5O)cc4)CC3)CC1)c1nnc(C)n1-2 [Compound 80, (S)-2-(4-(4-chlorophenyl)-2,3,9-trimethyl-6H-thieno[3,2-f][1,2,4]triazolo[4,3-a][1,4]diazepin-6-yl)-1-(4-(2-(4-(4-(3-(2,4-dihydroxy-5-isopropylphenyl)-5-hydroxy-4H-1,2,4-triazol-4-yl)benzyl)piperidin-1-yl)ethyl)piperidin-1-yl)ethan-1-one, trifluoroacetic acid] | < 100 nM |
| Cc1sc2c(c1C)C(c1ccc(Cl)cc1)=N[C@@H](CC(=O)N[C@H](C)c1cccc(CN3CCC(Cc4ccc(-n5c(O)nnc5-c5cc(C(C)C)c(O)cc5O)cc4)CC3)c1)c1nnc(C)n1-2 [Compound 81, 2-((S)-4-(4-chlorophenyl)-2,3,9-trimethyl-6H-thieno[3,2-f][1,2,4]triazolo[4,3-a][1,4]diazepin-6-yl)-N—((R)-1-(3-((4-(4-(3-(2,4-dihydroxy-5-isopropylphenyl)-5-hydroxy-4H-1,2,4-triazol-4-yl)benzyl)piperidin-1-yl)methyl)phenyl)ethyl)acetamide, trifluoroacetic acid] | < 100 nM |
| Cc1sc2c(c1C)C(c1ccc(Cl)cc1)=N[C@@H](CC(=O)N1CCC(Cc3ccc(CN(C)Cc4ccc(-n5c(O)nnc5-c5cc(C(C)C)c(O)cc5O)cc4)cc3)CC1)c1nnc(C)n1-2 [Compound 83, (S)-2-(4-(4-chlorophenyl)-2,3,9-trimethyl-6H-thieno[3,2-f][1,2,4]triazolo[4,3-a][1,4]diazepin-6-yl)-1-(4-(4-(((4-(3-(2,4-dihydroxy-5-isopropylphenyl)-5-hydroxy-4H-1,2,4-triazol-4-yl)benzyl)(methyl)amino)methyl)benzyl)piperidin-1-yl)ethan-1-one, trifluoroacetic acid] | < 100 nM |
| Cc1sc2c(c1C)C(c1ccc(Cl)cc1)=N[C@@H](CC(=O)N1CCC(CN3CCC(Cc4ccc(-n5c(C(=O)NCC(F)(F)F)nnc5-c5cc(C(C)C)c(O)cc5O)cc4)CC3)CC1)c1nnc(C)n1-2 [Compound 85, (S)-4-(4-((1-((1-(2-(4-(4-chlorophenyl)-2,3,9-trimethyl-6H-thieno[3,2-f][1,2,4]triazolo[4,3-a][1,4]diazepin-6-yl)acetyl)piperidin-4-yl)methyl)piperidin-4-yl)methyl)phenyl)-5-(2,4-dihydroxy-5-isopropylphenyl)-N-(2,2,2-trifluoroethyl)-4H-1,2,4-triazole-3-carboxamide, formic acid] | < 100 nM |
| CCc1cc(-c2nnc(C(=O)NCC(F)(F)F)n2-c2ccc(CC3CCN(CC4CCN(C(=O)C[C@@H]5N=C(c6ccc(Cl)cc6)c6c(sc(C)c6C)-n6c(C)nnc65)CC4)CC3)cc2)c(O)cc1O [Compound 86, (S)-4-(4-((1-((1-(2-(4-(4-chlorophenyl)-2,3,9-trimethyl-6H-thieno[3,2-f][1,2,4]triazolo[4,3-a][1,4]diazepin-6-yl)acetyl)piperidin-4-yl)methyl)piperidin-4-yl)methyl)phenyl)-5-(5-ethyl-2,4-dihydroxyphenyl)-N-(2,2,2-trifluoroethyl)-4H-1,2,4-triazole-3-carboxamide, trifluoroacetic acid] | < 100 nM |
| CCNC(=O)c1nnc(-c2cc(CC)c(O)cc2O)n1-c1ccc(CC2CCN(CC3CCN(C(=O)C[C@@H]4N=C(c5ccc(Cl)cc5)c5c(sc(C)c5C)-n5c(C)nnc54)CC3)CC2)cc1 [Compound 87, (S)-4-(4-((1-((1-(2-(4-(4-chlorophenyl)-2,3,9-trimethyl-6H-thieno[3,2-f][1,2,4]triazolo[4,3-a][1,4]diazepin-6-yl)acetyl)piperidin-4-yl)methyl)piperidin-4-yl)methyl)phenyl)-N-ethyl-5-(5-ethyl-2,4-dihydroxyphenyl)-1H-1,2,414-triazole-3-carboxamide, trifluoroacetic acid] | < 100 nM |
| CCc1cc(-c2nnc(O)n2-c2ccc(CC3CCN(CC4CCN(C(=O)C[C@@H]5N=C(c6ccc(Cl)cc6)c6c(sc(C)c6C)-n6c(C)nnc65)CC4)CC3)cc2)c(O)cc1O [Compound 88, (S)-2-(4-(4-chlorophenyl)-2,3,9-trimethyl-6H-thieno[3,2-f][1,2,4]triazolo[4,3-a][1,4]diazepin-6-yl)-1-(4-((4-(4-(3-(5-ethyl-2,4-dihydroxyphenyl)-5-hydroxy-4H-1,2,4-triazol-4-yl)benzyl)piperidin-1-yl)methyl)piperidin-1-yl)ethan-1-one, formic acid] | < 100 nM |
| Cc1sc2c(c1C)C(c1ccc(Cl)cc1)=N[C@@H](CC(=O)NCc1ccc(CN3CCC(Cc4ccc(-n5c(O)nnc5-c5cc(C(C)C)c(O)cc5O)cc4)CC3)cc1)c1nnc(C)n1-2 [Compound 89, (S)-2-(4-(4-chlorophenyl)-2,3,9-trimethyl-6H-thieno[3,2-f][1,2,4]triazolo[4,3-a][1,4]diazepin-6-yl)-N-(4-((4-(4-(3-(2,4-dihydroxy-5-isopropylphenyl)-5-hydroxy-4H-1,2,4-triazol-4-yl)benzyl)piperidin-1-yl)methyl)benzyl)acetamide, trifluoroacetic acid] | < 100 nM |
| CCNC(=O)c1nnc(-c2cc(C(C)C)c(O)cc2O)n1-c1ccc(CC2CCN(CC3CCN(C(=O)C[C@@H]4N=C(c5ccc(Cl)cc5)c5c(sc(C)c5C)-n5c(C)nnc54)CC3)CC2)cc1 [Compound 90, (S)-4-(4-((1-((1-(2-(4-(4-chlorophenyl)-2,3,9-trimethyl-6H-thieno[3,2-f][1,2,4]triazolo[4,3-a][1,4]diazepin-6-yl)acetyl)piperidin-4-yl)methyl)piperidin-4-yl)methyl)phenyl)-5-(2,4-dihydroxy-5-isopropylphenyl)-N-ethyl-4H-1,2,4-triazole-3-carboxamide] | < 100 nM |
| CCc1cc(-c2nnc(C(=O)NCC(F)(F)F)n2-c2ccc(CC3CCN(Cc4ccc(CNC(=O)C[C@@H]5N=C(c6ccc(Cl)cc6)c6c(sc(C)c6C)-n6c(C)nnc65)cc4)CC3)cc2)c(O)cc1O [Compound 91, (S)-4-(4-((1-(4-((2-(4-(4-chlorophenyl)-2,3,9-trimethyl-6H-thieno[3,2-f][1,2,4]triazolo[4,3-a][1,4]diazepin-6-yl)acetamido)methyl)benzyl)piperidin-4-yl)methyl)phenyl)-5-(5-ethyl-2,4-dihydroxyphenyl)-N-(2,2,2-trifluoroethyl)-4H-1,2,4-triazole-3-carboxamide, trifluoroacetic acid] | < 100 nM |
| Cc1sc2c(c1C)C(c1ccc(Cl)cc1)=N[C@@H](CC(=O)N(C)[C@H](C)c1ccc(CN3CCN(Cc4ccc(-n5c(O)nnc5-c5cc(C(C)C)c(O)cc5O)cc4)CC3)cc1)c1nnc(C)n1-2 [Compound 92, 2-((S)-4-(4-chlorophenyl)-2,3,9-trimethyl-6H-thieno[3,2-f][1,2,4]triazolo[4,3-a][1,4]diazepin-6-yl)-N—((R)-1-(4-((4-(4-(3-(2,4-dihydroxy-5-isopropylphenyl)-5-hydroxy-4H-1,2,4-triazol-4-yl)benzyl)piperazin-1-yl)methyl)phenyl)ethyl)-N-methylacetamide, trifluoroacetic acid] | 100 to 1000 nM |
| Cc1sc2c(c1C)C(c1ccc(Cl)cc1)=N[C@@H](CC(=O)N(C)[C@H](C)c1ccc(CN3CCC(Cc4ccc(-n5c(O)nnc5-c5cc(C(C)C)c(O)cc5O)cc4)CC3)cc1)c1nnc(C)n1-2 [Compound 93, 2-((S)-4-(4-chlorophenyl)-2,3,9-trimethyl-6H-thieno[3,2-f][1,2,4]triazolo[4,3-a][1,4]diazepin-6-yl)-N—((R)-1-(4-((4-(4-(3-(2,4-dihydroxy-5-isopropylphenyl)-5-hydroxy-4H-1,2,4-triazol-4-yl)benzyl)piperidin-1-yl)methyl)phenyl)ethyl)-N-methylacetamide, trifluoroacetic acid] | < 100 nM |
| Cc1sc2c(c1C)C(c1ccc(Cl)cc1)=N[C@@H](CC(=O)N1CCC(CN3CCC(Cc4ccc(-n5c(O)nnc5-c5cc(C(C)C)c(O)cc5O)cc4)CC3)CC1)c1nnc(C)n1-2 [Compound 94, (S)-2-(4-(4-chlorophenyl)-2,3,9-trimethyl-6H-thieno[3,2-f][1,2,4]triazolo[4,3-a][1,4]diazepin-6-yl)-1-(4-((4-(4-(3-(2,4-dihydroxy-5-isopropylphenyl)-5-hydroxy-4H-1,2,4-triazol-4-yl)benzyl)piperidin-1-yl)methyl)piperidin-1-yl)ethan-1-one, trifluoroacetic acid] | < 100 nM |
| Cc1sc2c(c1C)C(c1ccc(Cl)cc1)=N[C@@H](CC(=O)NCCc1ccc(CN3CCC(Cc4ccc(-n5c(C(=O)NCC(F)(F)F)nnc5-c5cc(C(C)C)c(O)cc5O)cc4)CC3)cc1)c1nnc(C)n1-2 [Compound 95, (S)-4-(4-((1-(4-(2-(2-(4-(4-chlorophenyl)-2,3,9-trimethyl-6H-thieno[3,2-f][1,2,4]triazolo[4,3-a][1,4]diazepin-6-yl)acetamido)ethyl)benzyl)piperidin-4-yl)methyl)phenyl)-5-(2,4-dihydroxy-5-isopropylphenyl)-N-(2,2,2-trifluoroethyl)-4H-1,2,4-triazole-3-carboxamide, trifluoroacetic acid] | < 100 nM |
| Cc1sc2c(c1C)C(c1ccc(Cl)cc1)=N[C@@H](CC(=O)NCc1ccc(CN3CCC(Cc4ccc(-n5c(C(=O)NCC(F)(F)F)nnc5-c5cc(C(C)C)c(O)cc5O)cc4)CC3)cc1)c1nnc(C)n1-2 [Compound 96, (S)-4-(4-((1-(4-((2-(4-(4-chlorophenyl)-2,3,9-trimethyl-6H-thieno[3,2-f][1,2,4]triazolo[4,3-a][1,4]diazepin-6-yl)acetamido)methyl)benzyl)piperidin-4-yl)methyl)phenyl)-5-(2,4-dihydroxy-5-isopropylphenyl)-N-(2,2,2-trifluoroethyl)-4H-1,2,4-triazole-3-carboxamide, trifluoroacetic acid] | < 100 nM |
| Cc1sc2c(c1C)C(c1ccc(Cl)cc1)=N[C@@H](CC(=O)N[C@H](C)c1cccc(CN3CCC(Cc4ccc(-n5c(C(=O)NCC(F)(F)F)nnc5-c5cc(C(C)C)c(O)cc5O)cc4)CC3)c1)c1nnc(C)n1-2 [Compound 97, 4-(4-((1-(3-((R)-1-(2-((S)-4-(4-chlorophenyl)-2,3,9-trimethyl-6H-thieno[3,2-f][1,2,4]triazolo[4,3-a][1,4]diazepin-6-yl)acetamido)ethyl)benzyl)piperidin-4-yl)methyl)phenyl)-5-(2,4-dihydroxy-5-isopropylphenyl)-N-(2,2,2-trifluoroethyl)-4H-1,2,4-triazole-3-carboxamide, trifluoroacetic acid] | < 100 nM |
